Experiments:
Caco-2 cells = assay: Wound healing (scratch) assay; format: cell-based, human; conditions: pre-incubated with 0.1 μM CID 2745687
ERK1/2 signaling pathway = conditions: pre-treated with 0.1 μM CID 2745687 for 1 hour

Compound	wound-healing activity after GPR35 inhibition (Caco-2 cells)	ERK1/2 phosphorylation increase when treated with CID 2745687 (ERK1/2 signaling pathway)
CCCOc1ccccc1-c1nc2nn[nH]c2c(=O)[nH]1 [zaprinast]	abolished	reversed
human epidermal growth factor [EGF, a well-known wound therapeutic agent, positive control]	not inhibited	

— patent US12576137B2, “Collagen hydrolysate comprising GPCR ligand peptide” (Industry-Academic Cooperation Foundation, Yonsei University, priority 2021, dated 2026)
